According to ChEMBL document CHEMBL4402540, “Structure-Activity Relationship Studies of Small Molecule Modulators of the Staphylococcal Accessory Gene Regulator” (J Med Chem, 2020):
One block for each compound: values may come before it. Where a SMILES comes first, the peptide text is derived from it. Bridges are numbered along the chain shown (N, C = ends). [ ]: non-standard residue; d: D form. The star is where a group is joined. X2 = O=C(c1ccccc1)c1ccc(OCCCC(=O)*)cc1; X1 = O=C(CCCOc1ccc(Cc2ccccc2)cc1)*; Dap = NC[C@H](N)C(=O)O

What was measured:
[1] = Inhibition of AgrC-4 in Staphylococcus aureus
[2] = Inhibition of AgrC-2 in Staphylococcus aureus
[3] = Inhibition of AgrC-1 in Staphylococcus aureus
[4] = Inhibition of AgrC-3 in Staphylococcus aureus
[5] = Inhibition of AgrC-1 Staphylococcus aureus RN10829 incubated for 45 mins by beta-lactamase reporter gene assay
[6] = Inhibition of AgrC-2 in Staphylococcus aureus AH430 incubated for 24 hrs by fluorescence assay
[7] = Inhibition of AgrC-4 in Staphylococcus aureus AH1872 incubated for 24 hrs by fluorescence assay
[8] = Inhibition of AgrC-1 in Staphylococcus aureus AH1677 incubated for 24 hrs by fluorescence assay
[9] = Inhibition of AgrC-3 in Staphylococcus aureus AH1747 incubated for 24 hrs by fluorescence assay
[10] = Agonist activity at AgrC-4 in Staphylococcus aureus RN9371 by beta-lactamase reporter gene assay
[11] = Inhibition of AgrC-2 in Staphylococcus aureus RN9372 by beta-lactamase reporter gene assay
[12] = Inhibition of AgrC-2 in Staphylococcus aureus RN9532 by beta-lactamase reporter gene assay
[13] = target: T1, Chloramphenicol acetyltransferase (Staphylococcus epidermidis) (UniProt D2JCN2); assay: Activation of Chloramphenicol acetyltransferase activity in Staphylococcus epidermidis Tu3298 at 200 nM and measured every 15 sec for 20 mins (reference value: 12.5 U/mg)
T1 sequence (whole entry): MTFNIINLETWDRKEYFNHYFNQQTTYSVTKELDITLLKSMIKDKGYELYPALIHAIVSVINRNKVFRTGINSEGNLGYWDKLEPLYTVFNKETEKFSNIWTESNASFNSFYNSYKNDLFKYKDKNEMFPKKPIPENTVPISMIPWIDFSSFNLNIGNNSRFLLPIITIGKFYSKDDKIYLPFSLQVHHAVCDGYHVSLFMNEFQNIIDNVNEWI

[14] = target: T2, Receptor-histidine kinase AgrC (Staphylococcus aureus, UniProt O07911); assay: Inhibition of AgrC in mid-exponential phase Staphylococcus aureus RN6390B assessed as beta-lactamase activity incubated for 80 mins by spectrophotometric method
T2 sequence (O07911 whole entry): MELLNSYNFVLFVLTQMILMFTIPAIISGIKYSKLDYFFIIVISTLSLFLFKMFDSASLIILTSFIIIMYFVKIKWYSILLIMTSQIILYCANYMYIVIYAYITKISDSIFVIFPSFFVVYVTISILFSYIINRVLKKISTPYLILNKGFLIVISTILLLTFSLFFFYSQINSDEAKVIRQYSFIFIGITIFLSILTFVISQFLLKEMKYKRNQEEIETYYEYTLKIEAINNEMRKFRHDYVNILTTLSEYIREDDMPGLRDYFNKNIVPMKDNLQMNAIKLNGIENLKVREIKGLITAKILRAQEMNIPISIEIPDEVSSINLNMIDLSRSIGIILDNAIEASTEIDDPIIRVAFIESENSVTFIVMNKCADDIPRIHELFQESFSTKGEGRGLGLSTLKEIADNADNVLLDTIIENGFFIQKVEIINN

Staphylococcus aureus [15] = assay: Agonist activity at AgrC-4 in Staphylococcus aureus RN9371 incubated for 60 to 90 mins by beta-lactamase reporter gene assay
Staphylococcus aureus [16] = assay: Agonist activity at AgrC-1 in Staphylococcus aureus RN9222 incubated for 60 to 90 mins by beta-lactamase reporter gene assay
[17] = Inhibition of AgrC-2 in Staphylococcus aureus RN9372 incubated for 60 to 90 mins in presence of AIP agonist by beta-lactamase reporter gene assay
[18] = Agonist activity at AgrC-3 in Staphylococcus aureus incubated for 60 to 90 mins in presence of AIP agonist by beta-lactamase reporter gene assay
[19] = Inhibition of AgrC-1 Staphylococcus aureus RN6390B by agr-blaZ reporter gene assay
[20] = Inhibition of AgrC-2 Staphylococcus aureus SA564 by agr-blaZ reporter gene assay

SMILES: CC[C@H](C)[C@H]1NC(=O)[C@@H](Cc2ccccc2)NC(=O)[C@@H](C)NC(=O)[C@H](NC(=O)[C@H](NC(=O)[C@@H](CO)NC(=O)[C@H](N)Cc2ccc(O)cc2)[C@@H](C)O)CSC(=O)[C@@H](CCSC)NC1=O
- IC50 [1]: 3 nM
- IC50 [2]: 8 to 18 nM
- IC50 [3]: 5 to 303 nM
- IC50 [4]: 0.3 nM

SMILES: CC(C)C[C@H]1NC(=O)[C@@H](Cc2ccccc2)NC(=O)[C@@H](CC(=O)O)NC(=O)[C@@H](NC(=O)[C@@H](Cc2ccccc2)NC(=O)[C@@H]2CCCN2C(=O)[C@H](N)Cc2ccc(O)cc2)CSC(=O)[C@@H](CC(C)C)NC1=O
- IC50 [5]: 0.31 nM

SMILES: CC(C)C[C@@H]1NC(=O)[C@H](CO)NC(=O)[C@H](CO)NC(=O)[C@@H](NC(=O)[C@H](C)NC(=O)[C@H](CC(N)=O)NC(=O)[C@@H](NC(=O)CN)C(C)C)COC(=O)[C@H](Cc2ccccc2)NC1=O (H-GVNASSSLF; ester 5-C)
- IC50 [14]: 7.9 nM

SMILES: CC(C)C[C@@H]1NC(=O)[C@H](CO)NC(=O)[C@H](CO)NC(=O)[C@@H](NC(=O)[C@H](C)NC(=O)[C@H](CC(N)=O)NC(=O)[C@@H](NC(=O)CN)C(C)C)CNC(=O)[C@H](Cc2ccccc2)NC1=O (H-GVNA[Dap]SSLF; lactam 5-C)
- IC50 [14]: < 1 nM

SMILES: CC[C@H](C)[C@@H]1NC(=O)[C@H](Cc2ccccc2)NC(=O)[C@H](Cc2ccc(O)cc2)NC(=O)[C@@H](NC(=O)[C@@H](NC(=O)[C@H](CO)NC(=O)[C@@H](N)Cc2ccc(O)cc2)[C@@H](C)O)CSC(=O)[C@H](CCSC)NC1=O (H-YSTCYFIM; thioester 4-C)
- ED50 (Staphylococcus aureus [15]): 13 nM
- ED50 (Staphylococcus aureus [16]): 62 nM
- IC50 [17]: 4 nM
- IC50 [18]: 1 nM

Now from value to compound:

- IC50 [1]: 5 nM
- IC50 [2]: 5 nM
- IC50 [3]: 5 nM
- IC50 [4]: 0.1 nM
SMILES: CC[C@H](C)[C@H]1NC(=O)[C@@H](Cc2ccccc2)NC(=O)[C@@H](C)NC(=O)[C@H](NC(C)=O)CSC(=O)[C@@H](CCSC)NC1=O

- IC50 [5]: 16.8 nM
SMILES: CC(=O)N[C@H]1CSC(=O)[C@@H](CC(C)C)NC(=O)[C@@H](CC(C)C)NC(=O)[C@@H](Cc2ccccc2)NC(=O)[C@@H](CC(=O)O)NC1=O

- IC50 [6]: 0.429 to 3.5 nM
- IC50 [1]: 0.03 nM
- IC50 [2]: 0.4 nM
- IC50 [3]: 0.5 nM
- IC50 [7]: 0.0349 to 0.75 nM
- IC50 [4]: 0.05 nM
- IC50 [8]: 0.485 to 2.9 nM
- IC50 [9]: 0.0506 to 0.35 nM
SMILES: CC[C@@H](C)[C@H](NC(C)=O)C(=O)N[C@H](CC(N)=O)C(=O)N[C@@H]1CSC(=O)[C@@H](Cc2ccccc2)NC(=O)[C@@H](CC(C)C)NC(=O)[C@@H](CC(C)C)NC(=O)[C@@H](C)NC1=O

- IC50 [10]: > 1000 nM
- IC50 [11]: 419 nM
- IC50 [12]: 36.6 nM
SMILES: CC[C@H](C)[C@H](NC(=O)[C@@H](N)CC(=O)O)C(=O)N[C@H]1CSC(=O)[C@H](Cc2ccccc2)NC(=O)[C@H](Cc2ccc(O)cc2)NC(=O)[C@H](C)NC(=O)[C@H](CC(N)=O)NC1=O (H-DICNAYF; thioester 3-C)

- IC50 [10]: > 1000 nM
- IC50 [11]: > 1000 nM
- IC50 [12]: 13 nM
- Activity [13]: 53.3 U/mg
SMILES: CC(C)[C@H](NC(=O)[C@H](CO)NC(=O)[C@@H](N)CC(=O)O)C(=O)N[C@H]1CSC(=O)[C@H](Cc2ccccc2)NC(=O)[C@H](Cc2ccc(O)cc2)NC(=O)[C@H](CO)NC(=O)[C@H](C)NC1=O (H-DSVCASYF; thioester 4-C)

- IC50 [19]: 295 nM
- IC50 [20]: 19 nM
SMILES: CC[C@H](C)[C@@H]1NC(=O)[C@H](Cc2ccccc2)NC(=O)[C@H](C)NC(=O)[C@@H](NC(=O)[C@@H](NC(=O)[C@H](CO)NC(=O)CCCOc2ccc(Cc3ccccc3)cc2)[C@@H](C)O)CSC(=O)[C@H](CCSC)NC1=O (X1-STCAFIM; thioester 3-C)

- IC50 [19]: 21 nM
- IC50 [20]: 4 nM
SMILES: CC[C@H](C)[C@@H]1NC(=O)[C@H](Cc2ccccc2)NC(=O)[C@H](C)NC(=O)[C@@H](NC(=O)[C@@H](NC(=O)[C@H](CO)NC(=O)CCCOc2ccc(C(=O)c3ccccc3)cc2)[C@@H](C)O)CSC(=O)[C@H](CCSC)NC1=O (X2-STCAFIM; thioester 3-C)
